Here are results for 4 compounds from ChEMBL document CHEMBL1201862, “PubChem BioAssay data set” (2004).

SMILES strings stand for the structures. Activity calls are given as the source filed them.

The subject of one test is BJ. In words: cells. The class given is functional, cell-based. Conditions: Homo sapiens.
Test [1] is described as follows: cytotoxicity toward DRD oncogenic fibroblasts, dose response, cell-based, non-viral oncogenic, luminescence (AID 1934). The test is classed as functional. The following applies: Homo sapiens.
A further test concerns Vero. As to the kind of experiment: Vero cell cytotoxicity, cytotoxicity control for flavivirus capping enzyme inhibitors (AID 588742). The test is classed as functional. Conditions: Chlorocebus sabaeus.
A further test deals with Caspase-9 (Homo sapiens, UniProt P55211). As to the kind of experiment: caspase-9 enzyme inhibition, dose response, selectivity assay for caspase-6 inhibitor project, biochemical, fluorescence, plate reader, cherry-picked samples (AID 743293).
Test [2] can be described thus: Shn3 3'UTR reporter inhibitors, dose response, cell-based, Clone20 osteoblasts, firefly luciferase, cherry-picked (AID 624132).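 Also: firefly luciferase luminescence from reporter carrying the Shn3 3'UTR in osteoblasts.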 The test is classed as functional.
The nature of test [3]: Luminescence Cell-Based Dose Response HTS to Identify Inhibitors of 5'UTR Stem-Loop Driven Prion Protein mRNA Translation in H4 Neuroglioblastoma Cells. [Related pubchem assays: 1827 (Project Summary), 1813 (Primary HTS)]. The test is classed as functional.
Test [4] can be described thus: NIH-3T3 fibroblast cytotoxicity, dose response, cytotoxicity control, cell-based, fluorescence, Alamar Blue, secondary assay (AID 2327).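 Also: NIH-3T3 mouse fibroblasts cultured with fluconazole at 8 µg/mL.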 The test is classed as functional. (In general: Alamar Blue is a resazurin reagent that responds to reducing activity.)
A further test deals with T1, Streptokinase A (Streptococcus pyogenes serotype M1, UniProt P10520).
T1 sequence (P10520 whole entry): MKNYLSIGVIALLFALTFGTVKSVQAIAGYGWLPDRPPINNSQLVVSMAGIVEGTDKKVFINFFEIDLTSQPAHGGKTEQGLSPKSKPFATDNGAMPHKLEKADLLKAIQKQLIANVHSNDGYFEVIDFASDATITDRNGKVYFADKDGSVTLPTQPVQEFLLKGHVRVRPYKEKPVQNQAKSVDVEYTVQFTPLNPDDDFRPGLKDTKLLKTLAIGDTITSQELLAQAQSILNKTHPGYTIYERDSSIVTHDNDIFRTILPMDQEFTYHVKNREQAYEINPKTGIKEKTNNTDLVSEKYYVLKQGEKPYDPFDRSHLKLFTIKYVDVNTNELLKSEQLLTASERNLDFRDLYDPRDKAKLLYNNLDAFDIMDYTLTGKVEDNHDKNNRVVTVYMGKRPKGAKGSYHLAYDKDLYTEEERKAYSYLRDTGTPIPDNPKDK
As to the kind of experiment: S. pyogenes streptokinase expression inhibitors, potency, dose response, plasminogen activation absorbance, OD405 (AID 1914).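 Also: secreted streptokinase activity via plasminogen activation per viability signal from cell pellet.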 The test is classed as functional, Streptococcus pyogenes M1 GAS.

Test [5] concerns the target cAMP-dependent protein kinase catalytic subunit alpha (Homo sapiens, UniProt P17612). The class given is functional.
A further test has as its target T2, Aurora kinase A (Homo sapiens, UniProt O14965).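 Also: value from the Navigating the Kinome kinase panel profiling, panel entry STK6.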
T2 sequence (O14965 whole entry): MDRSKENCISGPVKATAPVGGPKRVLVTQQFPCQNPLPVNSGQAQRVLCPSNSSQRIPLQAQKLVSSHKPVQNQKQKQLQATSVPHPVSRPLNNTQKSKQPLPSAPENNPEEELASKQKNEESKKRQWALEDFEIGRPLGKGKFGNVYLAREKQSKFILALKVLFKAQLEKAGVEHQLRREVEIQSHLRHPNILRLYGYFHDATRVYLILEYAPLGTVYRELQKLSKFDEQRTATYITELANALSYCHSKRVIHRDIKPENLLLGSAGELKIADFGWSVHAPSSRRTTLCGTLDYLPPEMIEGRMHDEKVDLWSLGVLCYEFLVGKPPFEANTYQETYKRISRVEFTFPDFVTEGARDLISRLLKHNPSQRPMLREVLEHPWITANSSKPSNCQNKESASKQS
The test is classed as functional.

Another test concerns the target LIM domain kinase 1 (Homo sapiens, UniProt P53667). As to the kind of experiment: Navigating the Kinome. Panel member name: LIMK1. The test is classed as functional.
Test [6] addresses Serine/threonine-protein kinase PAK 1 (Homo sapiens, UniProt Q13153). The test is classed as functional.
The target of test [7] is Testis-specific serine/threonine-protein kinase 1 (Homo sapiens, UniProt Q9BXA7). The class given is functional.
Test [8] deals with Glycogen synthase kinase-3 alpha (Homo sapiens, UniProt P49840). The test is classed as functional.
The target in test [9] is STE20-like serine/threonine-protein kinase (Homo sapiens, UniProt Q9H2G2). The test is classed as functional.
Test [10] addresses Dual specificity protein kinase CLK2 (Homo sapiens, UniProt P49760). The class given is functional.
Test [11] has as its target Receptor-type tyrosine-protein kinase FLT3 (Homo sapiens, UniProt P36888). The class given is functional.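 Also: FLT3 was tested as one member of a kinome-wide kinase panel.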
For test [12], the target named is Testis-specific serine/threonine-protein kinase 2 (Homo sapiens, UniProt Q96PF2). The test is classed as functional.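 Also: part of the Navigating the Kinome panel, target entry STK22B.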
The target of test [13] is cAMP-dependent protein kinase catalytic subunit PRKX (Homo sapiens, UniProt P51817). The test is classed as functional.
Test [14] addresses RAC-gamma serine/threonine-protein kinase (Homo sapiens, UniProt Q9Y243). The test is classed as functional.
Test [15] concerns the target Fibroblast growth factor receptor 1 (Homo sapiens, UniProt P11362). The class given is functional.

Sequence of STE20-like serine/threonine-protein kinase (Q9H2G2 whole entry): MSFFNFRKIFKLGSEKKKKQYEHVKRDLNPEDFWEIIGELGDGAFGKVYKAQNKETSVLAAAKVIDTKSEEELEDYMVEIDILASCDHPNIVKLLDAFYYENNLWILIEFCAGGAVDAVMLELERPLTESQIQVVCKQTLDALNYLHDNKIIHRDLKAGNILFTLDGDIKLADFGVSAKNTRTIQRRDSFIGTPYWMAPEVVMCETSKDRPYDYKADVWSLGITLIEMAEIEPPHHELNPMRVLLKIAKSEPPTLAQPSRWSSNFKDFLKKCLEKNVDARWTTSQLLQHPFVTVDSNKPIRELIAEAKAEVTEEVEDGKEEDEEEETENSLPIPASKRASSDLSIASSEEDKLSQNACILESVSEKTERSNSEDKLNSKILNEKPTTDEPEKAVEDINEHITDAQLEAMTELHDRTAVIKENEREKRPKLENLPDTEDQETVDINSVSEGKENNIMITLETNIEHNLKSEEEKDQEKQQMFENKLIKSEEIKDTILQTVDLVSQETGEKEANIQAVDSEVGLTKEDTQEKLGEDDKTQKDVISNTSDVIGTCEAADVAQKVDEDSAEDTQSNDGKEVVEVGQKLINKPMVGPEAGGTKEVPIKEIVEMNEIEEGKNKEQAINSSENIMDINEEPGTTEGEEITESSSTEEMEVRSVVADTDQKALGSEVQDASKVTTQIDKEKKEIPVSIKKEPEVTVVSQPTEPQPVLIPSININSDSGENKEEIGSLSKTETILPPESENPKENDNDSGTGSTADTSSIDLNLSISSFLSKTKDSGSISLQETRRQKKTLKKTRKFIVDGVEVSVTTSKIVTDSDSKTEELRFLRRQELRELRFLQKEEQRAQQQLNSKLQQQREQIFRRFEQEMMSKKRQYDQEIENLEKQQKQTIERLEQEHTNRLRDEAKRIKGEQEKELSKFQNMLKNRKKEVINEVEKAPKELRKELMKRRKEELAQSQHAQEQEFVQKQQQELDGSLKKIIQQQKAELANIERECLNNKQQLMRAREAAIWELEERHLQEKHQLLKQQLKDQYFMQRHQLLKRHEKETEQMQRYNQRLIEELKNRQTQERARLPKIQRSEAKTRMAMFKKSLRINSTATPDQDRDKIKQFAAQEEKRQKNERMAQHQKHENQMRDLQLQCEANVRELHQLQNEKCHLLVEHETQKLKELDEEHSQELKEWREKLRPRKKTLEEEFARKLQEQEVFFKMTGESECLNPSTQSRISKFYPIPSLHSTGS
Sequence of Fibroblast growth factor receptor 1 (P11362 whole entry): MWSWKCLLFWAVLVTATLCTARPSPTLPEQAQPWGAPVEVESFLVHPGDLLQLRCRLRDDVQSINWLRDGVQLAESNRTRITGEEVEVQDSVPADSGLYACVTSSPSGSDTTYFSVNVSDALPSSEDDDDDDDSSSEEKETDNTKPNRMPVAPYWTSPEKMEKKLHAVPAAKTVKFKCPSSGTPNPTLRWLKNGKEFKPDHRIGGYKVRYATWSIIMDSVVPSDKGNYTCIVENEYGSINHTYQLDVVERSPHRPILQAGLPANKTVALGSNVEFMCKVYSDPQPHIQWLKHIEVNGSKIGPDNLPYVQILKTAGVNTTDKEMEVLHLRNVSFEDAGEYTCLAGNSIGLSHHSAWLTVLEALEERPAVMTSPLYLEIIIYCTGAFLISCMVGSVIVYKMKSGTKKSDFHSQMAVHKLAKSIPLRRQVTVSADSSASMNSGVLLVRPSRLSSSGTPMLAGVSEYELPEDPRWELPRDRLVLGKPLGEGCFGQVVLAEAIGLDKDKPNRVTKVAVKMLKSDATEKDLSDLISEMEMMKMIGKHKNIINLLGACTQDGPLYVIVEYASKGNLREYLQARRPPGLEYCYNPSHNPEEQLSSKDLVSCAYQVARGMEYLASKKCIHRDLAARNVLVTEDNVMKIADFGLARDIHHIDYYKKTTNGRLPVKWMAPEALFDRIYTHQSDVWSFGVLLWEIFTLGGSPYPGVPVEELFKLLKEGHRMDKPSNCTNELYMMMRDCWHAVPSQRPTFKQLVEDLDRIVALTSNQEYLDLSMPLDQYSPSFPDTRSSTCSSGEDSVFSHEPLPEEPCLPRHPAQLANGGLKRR
Sequence of Receptor-type tyrosine-protein kinase FLT3 (P36888 whole entry): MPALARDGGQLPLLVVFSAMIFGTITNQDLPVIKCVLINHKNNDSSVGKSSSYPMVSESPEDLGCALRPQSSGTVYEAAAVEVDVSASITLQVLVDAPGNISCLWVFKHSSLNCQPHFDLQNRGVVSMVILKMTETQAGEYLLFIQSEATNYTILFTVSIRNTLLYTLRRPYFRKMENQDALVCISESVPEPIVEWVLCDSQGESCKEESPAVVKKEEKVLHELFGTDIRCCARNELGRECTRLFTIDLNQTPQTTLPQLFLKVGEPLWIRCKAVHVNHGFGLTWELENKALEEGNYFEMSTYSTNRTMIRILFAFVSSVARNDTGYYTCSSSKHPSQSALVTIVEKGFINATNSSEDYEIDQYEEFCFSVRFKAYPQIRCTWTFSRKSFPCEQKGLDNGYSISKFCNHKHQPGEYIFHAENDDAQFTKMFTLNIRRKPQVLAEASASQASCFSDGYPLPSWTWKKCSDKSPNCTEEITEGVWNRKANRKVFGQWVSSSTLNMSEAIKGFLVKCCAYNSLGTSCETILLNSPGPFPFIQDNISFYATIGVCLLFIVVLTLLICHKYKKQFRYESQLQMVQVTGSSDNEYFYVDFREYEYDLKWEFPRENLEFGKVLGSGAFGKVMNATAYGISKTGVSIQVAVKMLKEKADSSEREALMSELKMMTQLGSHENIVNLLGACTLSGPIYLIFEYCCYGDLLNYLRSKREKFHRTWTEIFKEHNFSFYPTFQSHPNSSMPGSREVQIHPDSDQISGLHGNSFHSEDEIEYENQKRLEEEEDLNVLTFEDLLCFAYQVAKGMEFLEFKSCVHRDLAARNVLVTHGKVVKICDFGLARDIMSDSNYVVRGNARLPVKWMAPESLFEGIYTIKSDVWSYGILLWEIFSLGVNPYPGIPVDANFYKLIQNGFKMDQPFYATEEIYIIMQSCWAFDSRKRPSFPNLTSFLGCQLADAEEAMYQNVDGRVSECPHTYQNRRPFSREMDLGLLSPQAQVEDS
Sequence of Serine/threonine-protein kinase PAK 1 (Q13153 whole entry): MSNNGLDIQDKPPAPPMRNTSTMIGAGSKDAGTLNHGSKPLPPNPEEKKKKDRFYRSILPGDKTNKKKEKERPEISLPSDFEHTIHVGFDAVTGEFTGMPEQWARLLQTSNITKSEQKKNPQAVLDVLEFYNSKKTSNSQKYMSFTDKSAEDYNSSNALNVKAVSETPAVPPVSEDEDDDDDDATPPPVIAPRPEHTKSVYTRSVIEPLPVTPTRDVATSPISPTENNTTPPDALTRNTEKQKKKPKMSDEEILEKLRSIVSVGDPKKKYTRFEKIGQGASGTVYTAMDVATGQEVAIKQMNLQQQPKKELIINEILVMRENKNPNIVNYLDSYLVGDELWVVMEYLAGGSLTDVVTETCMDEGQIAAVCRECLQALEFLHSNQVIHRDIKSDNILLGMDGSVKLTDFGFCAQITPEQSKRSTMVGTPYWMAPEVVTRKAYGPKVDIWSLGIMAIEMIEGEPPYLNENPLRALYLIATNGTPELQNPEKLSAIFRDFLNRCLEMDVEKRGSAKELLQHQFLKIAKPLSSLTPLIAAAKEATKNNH
Sequence of Testis-specific serine/threonine-protein kinase 1 (Q9BXA7 whole entry): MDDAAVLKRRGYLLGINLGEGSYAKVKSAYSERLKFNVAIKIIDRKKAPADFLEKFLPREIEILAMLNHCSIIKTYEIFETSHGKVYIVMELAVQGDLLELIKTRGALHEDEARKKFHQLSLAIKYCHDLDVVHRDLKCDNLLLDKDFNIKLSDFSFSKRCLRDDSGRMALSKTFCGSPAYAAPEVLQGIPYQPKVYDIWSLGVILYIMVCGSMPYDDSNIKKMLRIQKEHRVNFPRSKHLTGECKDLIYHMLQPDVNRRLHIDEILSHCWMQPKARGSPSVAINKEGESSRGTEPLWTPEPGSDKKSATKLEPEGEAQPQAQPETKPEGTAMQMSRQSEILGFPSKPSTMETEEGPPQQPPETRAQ
Sequence of Testis-specific serine/threonine-protein kinase 2 (Q96PF2 whole entry): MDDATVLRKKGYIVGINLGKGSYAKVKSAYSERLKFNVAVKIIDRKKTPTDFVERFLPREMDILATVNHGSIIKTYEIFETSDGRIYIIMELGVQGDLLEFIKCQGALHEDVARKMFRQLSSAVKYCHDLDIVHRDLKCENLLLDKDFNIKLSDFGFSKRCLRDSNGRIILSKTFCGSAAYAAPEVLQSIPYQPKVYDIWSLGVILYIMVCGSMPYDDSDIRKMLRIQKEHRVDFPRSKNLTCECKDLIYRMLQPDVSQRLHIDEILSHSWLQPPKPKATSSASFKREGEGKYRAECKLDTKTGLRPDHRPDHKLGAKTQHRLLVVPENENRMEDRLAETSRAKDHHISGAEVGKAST
Sequence of Caspase-9 (P55211 1-315 limits assumed): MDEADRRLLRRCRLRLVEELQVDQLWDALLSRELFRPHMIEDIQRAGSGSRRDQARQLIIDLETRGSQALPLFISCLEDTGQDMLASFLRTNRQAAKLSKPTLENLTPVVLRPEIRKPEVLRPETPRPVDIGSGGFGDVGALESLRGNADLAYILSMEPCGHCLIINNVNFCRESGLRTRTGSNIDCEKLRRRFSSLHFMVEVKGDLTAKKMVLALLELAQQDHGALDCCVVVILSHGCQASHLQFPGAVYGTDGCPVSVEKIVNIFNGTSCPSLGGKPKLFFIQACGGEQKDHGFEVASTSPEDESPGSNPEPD
Sequence of Caspase-9 (P55211 331-416 limits assumed): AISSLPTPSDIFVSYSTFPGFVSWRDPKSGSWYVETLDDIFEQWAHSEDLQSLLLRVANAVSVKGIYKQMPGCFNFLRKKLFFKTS

The EC50 is the concentration needed to bring the measured effect to its halfway point. Usually CC50 stands for the concentration giving 50% cytotoxicity. The AC50 is the concentration at which the activity in the assay is half-maximal. In the case of `O=[N+]([O-])c1c(Nc2ccccn2)cc(Cl)c2nonc12`, the EC50 in the test with BJ was 5.38 µM (active); in test [1], 5.44 µM (inconclusive). For the same compound, in the test with Vero, the CC50 was 16.8 µM (active). The concentration at half-maximal activity (AC50) on Caspase-9 is 17.4 µM (active).
Turning to `CC[C@@H](C)[C@H](CNC)NC[C@@H](Cc1cccc2ccccc12)NCCc1cccc(C(F)(F)F)c1`, in [2], the half-maximal activity concentration (AC50) is 8.08 µM (active). For the same compound, the half-maximal effective concentration (EC50) in test [3] was > 120 µM (not active); in test [4], > 150 µM (inconclusive).
For the compound `Cc1ccc(S(=O)(=O)/N=C2\C=C(Nc3cccc(C(=O)O)c3)C(=O)c3ccccc32)cc1`, the EC50 at Streptokinase A is 47.3 µM (active).
What is called Ki is the equilibrium dissociation constant of an inhibitor or competing ligand from its target. Turning to `CC(C)(CO)CNc1nccc(-c2c(-c3ccc(F)cc3)nc3c(CC4CC4)nccn23)n1`, the Ki in test [5] is > 7.94 µM (inactive); on Aurora kinase A it was > 3.98 µM (inactive); at LIM domain kinase 1, 0.126 µM (active); in test [6], > 10 µM (inactive); in test [7] it was > 1.58 µM (inactive); in test [8], > 7.94 µM (inactive). In addition, the Ki is > 10 µM (inactive) in test [9]; > 7.94 µM (inactive) in [10]; > 2.51 µM (inactive) in [11]; > 1.58 µM (inactive) in test [12]; > 1.58 µM (inactive) in test [13]; > 10 µM (inactive) in test [14]. For the same compound, the Ki in test [15] is > 5.01 µM (inactive).
